These results are taken from US4937239A, “Azabicycloalkane oxime & azabicycloalkene oxime muscarinic agents” (Warner-Lambert Company, priority 1989, dated 1990).

Test [1] has as its system laboratory rats. Nature of the test: SIS, scopolamine induced swimming test. To be noted: for reversal of scopolamine-induced swimming hyperactivity: rats given scopolamine. In kind it is in vivo, rat. The protocol:
In a second screening assay, designated SIS, the scopolamine induced swimming test, the ability of representative compounds of the present invention to reverse the hyperactive swimming behavior of laboratory rats given scopolamine was assessed. In this test, untreated rats will generally swim distances between 20 to 30 meters during a five minute test period. […] The effect of scopolamine is centrally mediated; the ability of a test compound to reverse the hyperactive swimming behavior induced by scopolamine is thus a measure of the central cholinergic activity of the compound.

Test [2] deals with central muscarinic binding site. Nature of the test: RCMD screening assay: inhibition of radio-labeled cis-methyldioxolane (agonist) binding, rat cerebral cortex tissue. To be noted: R3 is hydrogen, double bond: No; for IC50: rat cerebral cortex; for % Inhib. RCMD: @ 10^-7 M. The protocol:
(§1) The biological activity of compounds of the present invention was evaluated using a number of tests. The activity of compounds of this invention as central muscarinic binding site agonists and antagonists was measured. In the RQNB screening assay, which is described more fully by Mark Watson, et al, J. Pharmocol. Exp. Ther., 237 (2): 411 (1986), rat cerebral cortex tissue was treated with radio-labeled quinuclidinyl benzilate, a known muscarinic binding site antagonist. The % inhibition concentration of test compound required to inhibit 50% of the binding of this muscarinic antagonist was then determined.
Similarly, in the RCMD screening assay, described more fully by T. W. Vickeroy, et al, J. Pharmacol. Exp. Ther., 229 (3): 747 (1984), rat cerebral cortex tissue was treated with radio-labeled cis-methyldioxolane,a known muscarinic binding site agonist. The concentrations of test compounds required to inhibit 50% of the binding of this muscarinic agonist were then determined.

Test [3] has the same target. Nature of the test: RQNB screening assay: inhibition of radio-labeled quinuclidinyl benzilate (antagonist) binding, rat cerebral cortex tissue. To be noted: R3 is hydrogen, double bond: No; for IC50: rat cerebral cortex; for % Inhib. RQNB: @ 10^-6 M. The method, then: as §1
For test [4] the following is noted: in vivo; cited from earlier work.
Test [5] concerns patients clinically diagnosed as having presenile primary degenerative dementia. Conditions: cited from earlier work.
Test [6] has as its system Aged humans and nonhuman primates. To be noted: aged humans and nonhuman primates with decreased cognition; cited from earlier work.

Regarding `CN1[C@@H]2C[C@@H](OC(=O)[C@H](CO)c3ccccc3)C[C@H]1[C@@H]1O[C@@H]12` [scopolamine], the “increase of swimming distance above baseline values” in test [1] (scopolamine 0.1 mg/kg, five minute test period) is 75-125%.

Regarding `CON=CC1CN2CCC1CC2` (stereo not drawn) [R1 = Hydrogen, R2 = Methyl, 1-Azabicyclo[2.2.2]octane-3-carboxaldehyde, O-methyloxime], the IC50 in test [2] is 11.8 nM; in test [3] it was 1360 nM. Further, in test [1] (Rattus norvegicus, PO, laboratory rats, read-out: ED50 required to demonstrate reversal of the scopolamine-induced hyperactive swimming activity), the ED50 was found to be 1.8 mg/kg.

`Nc1ccncc1N` [3,4-diaminopyridine]: the age-related cognitive deficits entry in test [4] is “ameliorate age-related cognitive deficits”.

With `C#CCON=C(C)C1CN2CCC1CC2` (stereo not drawn) [R1 = Methyl, R2 = 2-Propynyl, Ethanone,1-(1-Azabicyclo[2.2.2]oct-3-yl)-, O-2-propynyloxime], the “% Inhib. RCMD” value in test [2] is recorded as 78%. Besides, the “% Inhib. RQNB” value in test [3] is recorded as 81%.

Take `C=CCON=CC1CN2CCC1CC2` (stereo not drawn) [R1 = Hydrogen, R2 = Allyl, 1-Azabicyclo[2.2.2]octane-3-carboxaldehyde, O-2-propenyloxime]: the figures for the IC50 in test [2] and in test [3] were 117 nM and 146 nM, respectively.

On to `COC(=O)C1=CCCN(C)C1` [arecoline, methyl ester of 1,2,5,6-tetrahydro-1-methyl-3-pyridinecarboxylic acid], for which the “test of picture recognition” value in test [5] (double blind study) is “Significant improvement”. The “amelioration of symptoms of cognitive disorders” value in test [5] (patients with presenile primary degenerative dementia) is “effective in ameliorating some of the symptoms of cognitive disorders”. Moreover, the “reversal of scopolamine-induced swimming hyperactivity” value in test [1] is recorded as “can be reversed”.

On to `C#CCON=CC1CN2CCC1CC2` (stereo not drawn) [R1 = Hydrogen, R2 = 2-Propynyl, 1-Azabicyclo[2.2.2]octane-3-carboxaldehyde, O-2-propynyloxime], for which the IC50 in test [2] was 27 nM; in test [3] it was 348 nM.

With `CON=C(C)C1CN2CCC1CC2` (stereo not drawn) [R1 = Methyl, R2 = Methyl, Ethanone,1-(1-Azabicyclo[2.2.2]oct-3-yl)-, O-methyloxime], the “% Inhib. RCMD” value in test [2] stood at 90%. In addition, in test [3], the “% Inhib. RQNB” value turned out to be 54%.

With `CNC(=O)Oc1ccc2c(c1)[C@]1(C)CCN(C)[C@@H]1N2C` [physostigmine], the memory entry in test [6] is listed as “improved memory”. Also, in test [1], the “reversal of scopolamine-induced swimming hyperactivity” value is on record as “can be reversed”.
